What all share (assay): relative viability (nuclei count vs DMSO), 5 days (fraction); higher = more cells survive
Compound in the test “BI-D1870 + Lapatinib”: CC(C)CCN1c2nc(Nc3cc(F)c(O)c(F)c3)ncc2N(C)C(=O)C1C [BI-D1870] + CS(=O)(=O)CCNCc1ccc(-c2ccc3ncnc(Nc4ccc(OCc5cccc(F)c5)c(Cl)c4)c3c2)o1 [Lapatinib] (partner 2 µM)
The essentials:
(§1)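 Lung cancer cell lines, seeded in 1536-well plates, were treated the following day by pin tool with a single drug or with five library-drug doses (not always all listed) in √10 steps on top of a fixed anchor-drug dose. Cells were fixed and nuclei stained in one step after 5 days, and nuclei were counted. Relative viability is the nuclei count for treated wells divided by that for vehicle wells, reported as medians of duplicate plates.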

Compound in the test “Zebularine + Pemetrexed”: O=c1ncccn1[C@@H]1O[C@H](CO)[C@@H](O)[C@H]1O [Zebularine] + Nc1nc2[nH]cc(CCc3ccc(C(=O)N[C@@H](CCC(=O)O)C(=O)O)cc3)c2c(=O)[nH]1 [Pemetrexed] (partner 0.2 µM)
The essentials:
as §1

Compound in the test “Zebularine + Navitoclax”: O=c1ncccn1[C@@H]1O[C@H](CO)[C@@H](O)[C@H]1O [Zebularine] + CC1(C)CCC(c2ccc(Cl)cc2)=C(CN2CCN(c3ccc(C(=O)NS(=O)(=O)c4ccc(N[C@H](CCN5CCOCC5)CSc5ccccc5)c(S(=O)(=O)C(F)(F)F)c4)cc3)CC2)C1 [Navitoclax] (partner 0.5 µM)
The method, boiled down: as §1

Compound in the test “Zebularine + Pictilisib”: O=c1ncccn1[C@@H]1O[C@H](CO)[C@@H](O)[C@H]1O [Zebularine] + CS(=O)(=O)N1CCN(Cc2cc3nc(-c4cccc5[nH]ncc45)nc(N4CCOCC4)c3s2)CC1 [Pictilisib] (partner 1 µM)
The essentials: as §1

With UMC-11, the relative viability with BI-D1870 + Lapatinib (first compound 0.04 µM) is 1.12; in the test with BI-D1870 + Lapatinib (first compound 0.1265 µM), 0.858; in the test with BI-D1870 + Lapatinib (first compound 0.4 µM) it was 0.97; with BI-D1870 + Lapatinib (first compound 1.265 µM), 1.08; with BI-D1870 + Lapatinib (first compound 4 µM), 0.637; with Zebularine + Pemetrexed (first compound 1 µM), 0.809. Besides, the relative viability worked out at 0.724 with Zebularine + Pemetrexed (first compound 3.162 µM); 0.388 with Zebularine + Pemetrexed (first compound 10 µM); 0.649 in the test with Zebularine + Pemetrexed (first compound 31.62 µM); 0.417 with Zebularine + Pemetrexed (first compound 100 µM); 0.316 in the test with Zebularine + Navitoclax (first compound 1 µM); 0.328 with Zebularine + Navitoclax (first compound 3.162 µM). Also, the relative viability came out at 0.265 with Zebularine + Navitoclax (first compound 10 µM); 0.344 in the test with Zebularine + Navitoclax (first compound 31.62 µM); 0.238 with Zebularine + Navitoclax (first compound 100 µM); 0.89 with Zebularine + Pictilisib (first compound 1 µM); 0.451 in the test with Zebularine + Pictilisib (first compound 3.162 µM); 0.467 in the test with Zebularine + Pictilisib (first compound 10 µM). Further, the relative viability was 0.653 with Zebularine + Pictilisib (first compound 31.62 µM) and 0.35 in the test with Zebularine + Pictilisib (first compound 100 µM).

The values are drawn from the supplement of paper PMC10307832.
